Reference: patent publication US8822517B2, “Arylosulfonamides for the treatment of CNS diseases” (Adamed SP. Z O.O., priority 2010, dated 2014)
Read-outs that look alike come from different tables or passages of the source.

Assays:
dopaminergic D3 receptor = dopaminergic D3 receptor (Homo sapiens, UniProt P35462); assay: Binding assay D3 (h), [3H]methyl-spiperone, CHO cells; design: expressed in transfected cells; host or cells: CHO cells; conditions: read-out: D3 [%]
Procedure, shortened: (§1)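 Scintillation counting detects receptor-bound radioligand. Compound tested at 1×10^−6 M.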

adrenergic α2C receptor [1] = molecular target: T1, adrenergic α2C receptor (Homo sapiens, UniProt P18825); assay: Binding assay α2C (h), [3H]RX 821002, CHO cells; design: expressed in transfected cells; host or cells: CHO cells; conditions: read-out: α2C [%]
T1 sequence (P18825 1-462): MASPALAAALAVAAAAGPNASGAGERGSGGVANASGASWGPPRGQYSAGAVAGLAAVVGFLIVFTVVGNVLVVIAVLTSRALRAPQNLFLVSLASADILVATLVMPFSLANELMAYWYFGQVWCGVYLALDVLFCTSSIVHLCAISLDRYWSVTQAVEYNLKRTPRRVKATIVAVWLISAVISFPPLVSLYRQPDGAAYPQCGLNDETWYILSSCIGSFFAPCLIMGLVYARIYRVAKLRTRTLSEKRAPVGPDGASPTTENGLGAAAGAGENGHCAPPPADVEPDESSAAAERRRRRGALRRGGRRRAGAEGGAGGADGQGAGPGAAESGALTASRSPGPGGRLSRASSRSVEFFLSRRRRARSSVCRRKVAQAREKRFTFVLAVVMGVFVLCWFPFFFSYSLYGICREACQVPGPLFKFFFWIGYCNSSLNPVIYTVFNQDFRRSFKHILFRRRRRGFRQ
Procedure, shortened: as §1

dopaminergic D2 receptor = dopaminergic D2 receptor (Homo sapiens, UniProt P14416); assay: Binding assay D2S (h), [3H]methyl-spiperone, HEK-293 cells; design: expressed in transfected cells; host or cells: HEK-293 cells; conditions: read-out: D2 [%]
Sequence of dopaminergic D2 receptor (P14416 1-414 isoform P14416-2): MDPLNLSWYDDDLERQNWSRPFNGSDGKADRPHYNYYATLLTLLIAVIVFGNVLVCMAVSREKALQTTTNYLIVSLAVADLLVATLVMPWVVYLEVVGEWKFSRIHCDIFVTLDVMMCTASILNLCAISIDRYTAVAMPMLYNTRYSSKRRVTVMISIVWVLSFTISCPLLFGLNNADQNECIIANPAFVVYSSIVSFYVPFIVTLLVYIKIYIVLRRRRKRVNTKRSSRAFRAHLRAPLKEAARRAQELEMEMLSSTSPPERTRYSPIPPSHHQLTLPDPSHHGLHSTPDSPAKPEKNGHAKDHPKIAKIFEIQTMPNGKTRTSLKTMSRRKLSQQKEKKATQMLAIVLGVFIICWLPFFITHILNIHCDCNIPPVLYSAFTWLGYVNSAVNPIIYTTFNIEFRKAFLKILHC
Procedure, shortened: as §1

[2] = molecular target: T2, serotoninergic 5-HT1A receptor (Homo sapiens, UniProt P08908); assay: Binding assay 5-HT1A (h), [3H]8-OH-DPAT, HEK-293 cells; design: expressed in transfected cells; host or cells: HEK-293 cells; conditions: read-out: 5-HT1A
T2 sequence (P08908 1-422): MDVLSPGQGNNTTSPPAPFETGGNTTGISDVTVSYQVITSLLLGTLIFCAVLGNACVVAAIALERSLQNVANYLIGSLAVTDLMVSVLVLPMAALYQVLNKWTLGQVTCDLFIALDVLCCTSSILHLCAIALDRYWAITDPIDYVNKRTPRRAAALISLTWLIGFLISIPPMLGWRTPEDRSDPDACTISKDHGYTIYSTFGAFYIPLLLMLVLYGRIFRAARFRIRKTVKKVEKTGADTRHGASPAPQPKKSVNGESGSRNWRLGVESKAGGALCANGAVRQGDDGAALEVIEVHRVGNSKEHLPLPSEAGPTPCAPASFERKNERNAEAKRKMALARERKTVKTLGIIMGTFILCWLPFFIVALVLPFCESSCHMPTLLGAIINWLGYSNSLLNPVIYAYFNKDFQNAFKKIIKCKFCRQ
Procedure, shortened: as §1

adrenergic α2C receptor [3] = molecular target: T1, adrenergic α2C receptor; assay: Cellular functional assay, adrenergic α2C receptor (agonism/antagonism); assay type: cell-based; conditions: for activation at 1 µM: agonist effect, percent of control specific agonist response, compounds tested at 1×10^−6M, read-out: α2C −ag [%]; for inhibition at 1 µM: read-out: α2C −antag. [%]
Protocol: (§2) The compounds were tested at the concentration of 1×10^−6M.
(§3) In the Tables ag refers to agonism, and antag to antagonism).

[4] = molecular target: serotoninergic 5-HT6 receptor (Homo sapiens, UniProt P50406); assay: Binding assay 5-HT6 (h), [3H]LSD, CHO cells; design: expressed in transfected cells; host or cells: CHO cells; conditions: read-out: 5-HT6
Sequence of serotoninergic 5-HT6 receptor (P50406 whole entry): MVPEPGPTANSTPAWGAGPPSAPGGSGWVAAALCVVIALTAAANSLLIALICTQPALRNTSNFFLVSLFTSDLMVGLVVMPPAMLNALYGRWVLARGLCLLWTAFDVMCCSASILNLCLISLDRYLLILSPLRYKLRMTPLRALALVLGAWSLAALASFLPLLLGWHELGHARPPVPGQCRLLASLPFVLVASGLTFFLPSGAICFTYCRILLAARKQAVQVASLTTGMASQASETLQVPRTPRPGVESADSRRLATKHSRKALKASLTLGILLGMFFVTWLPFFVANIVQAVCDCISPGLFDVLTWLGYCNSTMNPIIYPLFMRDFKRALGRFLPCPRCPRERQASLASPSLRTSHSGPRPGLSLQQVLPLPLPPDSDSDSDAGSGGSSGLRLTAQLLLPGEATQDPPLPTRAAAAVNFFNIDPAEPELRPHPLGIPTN
Procedure, shortened: as §1

hERG potassium channels = hERG potassium channels (Homo sapiens, UniProt Q12809); assay: hERG potassium channel block, electrophysiology (IonWorks Quattro), CHO cells
Sequence of hERG potassium channels (Q12809 whole entry): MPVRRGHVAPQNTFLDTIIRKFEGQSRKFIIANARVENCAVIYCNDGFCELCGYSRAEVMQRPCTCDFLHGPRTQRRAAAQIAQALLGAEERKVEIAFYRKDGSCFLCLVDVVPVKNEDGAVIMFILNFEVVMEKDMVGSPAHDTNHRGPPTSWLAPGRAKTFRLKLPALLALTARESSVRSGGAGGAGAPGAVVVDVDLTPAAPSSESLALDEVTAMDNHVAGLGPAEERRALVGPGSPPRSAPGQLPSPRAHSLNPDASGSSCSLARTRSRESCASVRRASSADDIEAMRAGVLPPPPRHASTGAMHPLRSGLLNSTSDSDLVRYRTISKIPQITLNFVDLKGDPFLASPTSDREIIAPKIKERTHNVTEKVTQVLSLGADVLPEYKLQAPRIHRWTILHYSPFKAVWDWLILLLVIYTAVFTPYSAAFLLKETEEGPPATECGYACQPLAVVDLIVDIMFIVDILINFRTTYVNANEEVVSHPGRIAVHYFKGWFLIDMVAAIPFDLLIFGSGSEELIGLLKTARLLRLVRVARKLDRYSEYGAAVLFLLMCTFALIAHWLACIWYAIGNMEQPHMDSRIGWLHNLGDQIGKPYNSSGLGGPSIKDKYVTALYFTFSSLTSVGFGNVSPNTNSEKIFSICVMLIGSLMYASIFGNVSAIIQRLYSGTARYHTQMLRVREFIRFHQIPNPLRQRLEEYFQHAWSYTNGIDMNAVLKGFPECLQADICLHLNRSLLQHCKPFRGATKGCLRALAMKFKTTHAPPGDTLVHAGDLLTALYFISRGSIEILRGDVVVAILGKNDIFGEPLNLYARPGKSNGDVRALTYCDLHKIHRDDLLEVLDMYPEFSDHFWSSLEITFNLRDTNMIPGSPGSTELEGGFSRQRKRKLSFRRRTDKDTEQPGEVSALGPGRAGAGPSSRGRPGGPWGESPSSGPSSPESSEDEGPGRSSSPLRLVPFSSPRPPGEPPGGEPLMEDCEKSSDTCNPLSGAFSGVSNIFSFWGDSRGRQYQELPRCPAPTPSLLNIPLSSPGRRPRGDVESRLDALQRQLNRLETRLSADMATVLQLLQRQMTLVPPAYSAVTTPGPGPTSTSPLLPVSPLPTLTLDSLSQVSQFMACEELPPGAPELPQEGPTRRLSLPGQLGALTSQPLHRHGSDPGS
Protocol: Ability to block hERG potassium channels was determined using the electrophysiological method and cloned hERG potassium channels (KCNH2 gene, expressed in CHO cells) as biological material. The effects were evaluated using IonWorks™ Quattro system (MDS-AT).
hERG current was elicited using a pulse pattern with fixed amplitudes (conditioning prepulse: −80 mV for 25 ms; test pulse: +40 mV for 80 ms) from a holding potential of 0 mV. hERG current was measured as a difference between the peak current at 1 ms after the test step to +40 mV and the steady-state current at the end of the step to +40 mV.
Data acquisition and analyses was performed using the IonWorks Quattro™ system operation software (version 2.0.2; Molecular Devices Corporation, Union City, Calif.). Data were corrected for leak current.

[5] = molecular target: serotoninergic 5-HT2A receptor (Homo sapiens, UniProt P28223); assay: Binding assay 5-HT2A (h), [3H]ketanserin, HEK-293 cells; design: expressed in transfected cells; host or cells: HEK-293 cells; conditions: read-out: 5-HT2A
Sequence of serotoninergic 5-HT2A receptor (P28223 whole entry): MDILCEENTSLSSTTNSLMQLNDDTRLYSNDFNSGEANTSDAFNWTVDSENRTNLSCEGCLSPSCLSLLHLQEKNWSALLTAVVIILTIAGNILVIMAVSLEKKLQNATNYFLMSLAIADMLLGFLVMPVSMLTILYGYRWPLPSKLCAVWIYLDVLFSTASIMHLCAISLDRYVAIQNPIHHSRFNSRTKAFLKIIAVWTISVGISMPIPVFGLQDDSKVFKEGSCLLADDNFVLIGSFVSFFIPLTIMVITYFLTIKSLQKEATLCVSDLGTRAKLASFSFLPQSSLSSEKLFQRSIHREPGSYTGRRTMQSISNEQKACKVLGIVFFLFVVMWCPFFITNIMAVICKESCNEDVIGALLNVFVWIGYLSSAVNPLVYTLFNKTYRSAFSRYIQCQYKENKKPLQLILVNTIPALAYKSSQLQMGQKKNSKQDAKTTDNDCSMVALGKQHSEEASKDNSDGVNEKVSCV
Procedure, shortened: as §1

[6] = molecular target: serotoninergic 5-HT7 receptor (Homo sapiens, UniProt P34969); assay: Cellular functional assay, serotoninergic 5-HT7 receptor (agonism/antagonism); assay type: cell-based; conditions: for activation at 1 µM: read-out: 5-HT7-ag [%]; for inhibition at 1 µM: read-out: 5-HT7-antag. [%]
Sequence of serotoninergic 5-HT7 receptor (P34969 whole entry): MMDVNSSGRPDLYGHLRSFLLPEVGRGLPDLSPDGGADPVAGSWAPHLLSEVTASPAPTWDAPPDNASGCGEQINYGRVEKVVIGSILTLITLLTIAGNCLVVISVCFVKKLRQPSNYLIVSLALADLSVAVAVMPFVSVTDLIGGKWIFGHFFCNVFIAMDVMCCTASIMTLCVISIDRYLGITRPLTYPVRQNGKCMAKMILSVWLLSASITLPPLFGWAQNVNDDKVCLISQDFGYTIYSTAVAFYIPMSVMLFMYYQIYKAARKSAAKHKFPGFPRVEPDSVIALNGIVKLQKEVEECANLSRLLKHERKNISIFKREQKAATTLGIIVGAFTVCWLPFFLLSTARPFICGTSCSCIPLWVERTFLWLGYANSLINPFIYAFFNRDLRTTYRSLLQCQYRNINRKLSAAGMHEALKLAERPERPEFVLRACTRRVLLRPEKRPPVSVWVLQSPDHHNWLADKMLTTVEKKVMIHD
Protocol: as §2, §3

sigma σ receptor = assay: Binding assay σ (non-selective), [3H]DTG, rat cerebral cortex; conditions: percent inhibition of control specific binding; compounds tested at 1×10^−6 M
Procedure, shortened: as §1

[7] = molecular target: T3, serotonine transporter (SERT) receptor (Homo sapiens, UniProt P31645); assay: Binding assay SERT (h), [3H]imipramine, CHO cells; conditions: read-out: SERT [%]
T3 construct: expressed in transfected cells; host or cells: CHO cells
T3 sequence (P31645 whole entry): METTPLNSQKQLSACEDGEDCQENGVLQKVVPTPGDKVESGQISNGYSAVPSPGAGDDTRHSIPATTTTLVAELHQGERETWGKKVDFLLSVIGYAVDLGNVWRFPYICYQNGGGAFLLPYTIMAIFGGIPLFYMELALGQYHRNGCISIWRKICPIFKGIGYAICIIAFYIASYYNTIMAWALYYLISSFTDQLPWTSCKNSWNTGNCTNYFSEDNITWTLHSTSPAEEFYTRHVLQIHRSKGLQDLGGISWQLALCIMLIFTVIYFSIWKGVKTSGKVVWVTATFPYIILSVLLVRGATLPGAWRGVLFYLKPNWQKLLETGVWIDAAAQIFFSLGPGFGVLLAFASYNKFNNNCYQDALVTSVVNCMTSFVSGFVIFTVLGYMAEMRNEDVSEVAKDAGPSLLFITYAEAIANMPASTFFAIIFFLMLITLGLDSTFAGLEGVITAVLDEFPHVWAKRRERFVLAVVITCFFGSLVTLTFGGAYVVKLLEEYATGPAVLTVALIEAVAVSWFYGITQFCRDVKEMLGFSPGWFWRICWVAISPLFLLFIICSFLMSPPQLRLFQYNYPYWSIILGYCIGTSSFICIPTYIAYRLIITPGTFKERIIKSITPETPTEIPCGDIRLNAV
Procedure, shortened: as §1

adrenergic α1 receptor = assay: Binding assay α1 (non-selective), [3H]prazosin, rat cerebral cortex; conditions: percent inhibition of control specific binding; compounds tested at 1×10^−6 M
Procedure, shortened: as §1

[8] = molecular target: T2, serotoninergic 5-HT1A receptor; assay: Cellular functional assay, serotoninergic 5-HT1A receptor (agonism/antagonism); assay type: cell-based; conditions: for inhibition at 1 µM: CHO, read-out: 5-HT1A-antag. [%]; for activation at 1 µM: agonist effect, percent of control specific agonist response (100 nM 8-OH-DPAT for control), 1×10^−6 M, 5-HT1A (h), CHO cells, read-out: 5-HT1A-ag [%]
Protocol: as §2, §3

[9] = % block of hERG current, cloned hERG channels in CHO cells, IonWorks Quattro
[10] = agonist effect, percent of control specific agonist response, compounds tested at 1×10^−6M

Sequence of dopaminergic D3 receptor (P35462 whole entry): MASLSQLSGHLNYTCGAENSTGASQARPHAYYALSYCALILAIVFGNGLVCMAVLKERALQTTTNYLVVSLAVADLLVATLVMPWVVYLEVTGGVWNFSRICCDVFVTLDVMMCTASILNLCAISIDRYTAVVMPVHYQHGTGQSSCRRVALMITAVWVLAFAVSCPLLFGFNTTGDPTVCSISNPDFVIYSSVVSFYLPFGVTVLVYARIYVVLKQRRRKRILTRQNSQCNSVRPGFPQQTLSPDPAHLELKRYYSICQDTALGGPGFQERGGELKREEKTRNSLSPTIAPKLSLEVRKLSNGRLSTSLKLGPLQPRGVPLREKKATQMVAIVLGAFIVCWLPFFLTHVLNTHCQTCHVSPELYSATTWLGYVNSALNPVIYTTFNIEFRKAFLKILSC

SMILES | inhibition at 1 µM (dopaminergic D3 receptor) | inhibition at 1 µM (adrenergic α2C receptor [1]) | inhibition at 1 µM (dopaminergic D2 receptor) | inhibition at 1 µM [2] | activation at 1 µM (adrenergic α2C receptor [3]) | inhibition at 1 µM (adrenergic α2C receptor [3]) | inhibition at 1 µM [4] | hERG [%] (hERG potassium channels; [9]) | inhibition at 1 µM [5] | activation at 1 µM [6, 10] | inhibition at 1 µM [6] | σ [%] (sigma σ receptor) | inhibition at 1 µM [7] | α1 [%] (adrenergic α1 receptor) | hERG [%] (hERG potassium channels) | activation at 1 µM [6] | inhibition at 1 µM [8] | activation at 1 µM [8]
Cc1c(S(=O)(=O)NCCCCN2CCC(c3noc4cc(F)ccc34)CC2)sc2ccc(F)cc12 [Compound 101, 5-Fluoro-N-[4-[4-(6-fluoro-1,2-benzoxazol-3-yl)piperidin-1-yl]butyl]-3-methylbenzothiophene-2-sulphonamide] | 92% | 106% | 99% | 82% | 1% | 46% | 98% | 14% | 100% | -2% | 101% | 70% | 47% | 99% |  |  |  | 
O=S(=O)(NCCCN1CCC(c2noc3cc(F)ccc23)CC1)c1ccc(F)c(Cl)c1 [Compound 331, 3-Chloro-4-fluoro-N-[3-[4-(6-fluoro-1,2-benzoxazol-3-yl)piperidin-1-yl]propyl]benzenesulphonamide] | 100% | 104% | 100% | 82% | -14% | 7% | 97% | 32% | 102% | -2% | 102% |  | 31% |  |  |  |  | 
O=S(=O)(NCCCCN1CCN(c2noc3ccccc23)CC1)c1ccc2ccccc2c1 [Compound 14, N-(4-(4-(1,2-Benzoxazol-3-yl)piperazin-1-yl)butyl)naphthalene-2-sulphonamide] | 97% | 100% | 99% | 88% | -3% | 12% | 99% | −1.4% | 100% | -1% | 85% | 40% | 3% | 102% |  |  |  | 
Cc1cccc(S(=O)(=O)NCCCCN2CCN(c3nsc4ccccc34)CC2)c1 [Compound 3, N-(4-(4-(1,2-Benzothiazol-3-yl)piperazin-1-yl)butyl)-3-methylbenzenesulphonamide] | 98% | 99% | 96% | 98% |  |  | 83% |  | 100% |  | 93% | 66% | 57% | 100% | 17% | -2% |  | 
O=S(=O)(NCCCCN1CCC(c2noc3cc(F)ccc23)CC1)c1ccc2ccccc2c1 [Compound 18, N-[4-[4-(6-Fluoro-1,2-benzoxazol-3-yl)piperidin-1-yl]butyl]naphthalene-2-sulphonamide] | 98% | 100% | 98% | 81% | -10% | 28% | 100% | 30% | 100% | -1% | 89% |  | 39% |  |  |  |  | 
O=S(=O)(NCCCCN1CCN(c2nsc3ccccc23)CC1)c1csc2ccccc12 [Compound 240, N-[4-[4-(1,2-Benzothiazol-3-yl)piperazin-1-yl]butyl]benzothiophene-3-sulphonamide] | 99% | 100% | 101% | 98% | 13% | 35% | 98% |  | 101% | -2% | 98% | 44% | 46% | 96% |  |  | 50% | 9%
Cc1c(S(=O)(=O)NCCCCN2CCN(c3noc4ccccc34)CC2)sc2ccc(F)cc12 [Compound 81, N-[4-[4-(1,2-Benzoxazol-3-yl)piperazin-1-yl]butyl]-5-fluoro-3-methylbenzothiophene-2-sulphonamide] | 97% | 106% | 90% | 92% | 9% | 20% | 98% |  | 101% | -2% | 98% | 59% | 28% | 96% |  |  | 22% | 5%
O=S(=O)(NCCCCN1CCN(c2nsc3ccccc23)CC1)c1cc2ccc(Cl)cc2s1 [Compound 241, N-[4-[4-(1,2-Benzothiazol-3-yl)piperazin-1-yl]butyl]-6-chlorobenzothiophene-2-sulphonamide] | 97% | 98% | 100% | 98% | -1% | 14% | 96% |  | 101% | -2% | 83% | 51% | 50% | 93% |  |  | 42% | 5%
O=S(=O)(NCCCCN1CCN(c2cccc3[nH]ccc23)CC1)c1cccc(F)c1 [Compound 28, 3-Fluoro-N-{4-[4-(1H-indol-4-yl)piperazin-1-yl]butyl}benzenesulphonamide] | 99% | 92% | 98% | 100% | 4% | 27% | 98% |  | 89% | 4% | 23% | 84% | 53% | 92% |  |  | 27% | 63%
Cc1c(S(=O)(=O)NCCCCN2CCN(c3nsc4ccccc34)CC2)sc2ccc(F)cc12 [Compound 65, N-[4-[4-(1,2-Benzothiazol-3-yl)piperazin-1-yl]butyl]-5-fluoro-3-methylbenzothiophene-2-sulphonamide] | 74% | 104% | 99% | 100% | 8% | 20% | 97% |  | 101% | -2% | 91% | 62% | 57% | 95% |  |  | 35% | 9%
